Positions of bridges follow the written chain, without caps; N, C: chain ends. Non-standard residues stand in square brackets, D forms with d. Residues, ends and D or L forms follow the SMILES beside them. *: point of attachment. Malonyl(2,2-Me2,histaminyl) = CC(C)(C(=O)NCCc1cnc[nH]1)C(=O)*; Ala(1H-tetrazol-5-yl) = N[C@@H](Cc1nnn[nH]1)C(=O)O; Nle = CCCC[C@H](N)C(=O)O; Aib = CC(C)(N)C(=O)O
Columns and labels:
human GLP1 receptor = molecular target: T1, human GLP1 receptor (Homo sapiens, UniProt P43220); assay: cAMP accumulation assay, functional agonism of human GLP1 receptor; format: cell-based; conditions: HEK cells infected with human GLP1 receptor BacMam virus, HTRF cAMP; for Emax: HEK293, read-out: Human GLP-1R agonist cAMP Emax; for EC50: read-out: Human GLP-1R agonist cAMP pEC50 (converted)
T1 construct: expressed in transfected cells; host or cells: HEK cells, BacMam virus transduction
Method in brief: (§1)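 HEK cells transduced for 24 hours with human GLP2 or GLP1 receptor BacMam virus were frozen, then stimulated with agonist in HBSS containing 0.5 mM IBMX. After 45 min at 37° C, cAMP was measured by HTRF after adding detection reagents in lysis buffer.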

human GLP2 receptor = molecular target: T2, human GLP2 receptor (Homo sapiens, UniProt O95838); assay: cAMP accumulation assay, functional agonism of human GLP2 receptor; format: cell-based; conditions: HEK cells infected with human GLP2 receptor BacMam virus, HTRF cAMP; for Emax: HEK293, read-out: Human GLP-2R agonist cAMP Emax; for EC50: read-out: Human GLP-2R agonist cAMP pEC50 (converted)
T2 construct: expressed in transfected cells; host or cells: HEK cells, BacMam virus transduction
T2 sequence (O95838 1-553): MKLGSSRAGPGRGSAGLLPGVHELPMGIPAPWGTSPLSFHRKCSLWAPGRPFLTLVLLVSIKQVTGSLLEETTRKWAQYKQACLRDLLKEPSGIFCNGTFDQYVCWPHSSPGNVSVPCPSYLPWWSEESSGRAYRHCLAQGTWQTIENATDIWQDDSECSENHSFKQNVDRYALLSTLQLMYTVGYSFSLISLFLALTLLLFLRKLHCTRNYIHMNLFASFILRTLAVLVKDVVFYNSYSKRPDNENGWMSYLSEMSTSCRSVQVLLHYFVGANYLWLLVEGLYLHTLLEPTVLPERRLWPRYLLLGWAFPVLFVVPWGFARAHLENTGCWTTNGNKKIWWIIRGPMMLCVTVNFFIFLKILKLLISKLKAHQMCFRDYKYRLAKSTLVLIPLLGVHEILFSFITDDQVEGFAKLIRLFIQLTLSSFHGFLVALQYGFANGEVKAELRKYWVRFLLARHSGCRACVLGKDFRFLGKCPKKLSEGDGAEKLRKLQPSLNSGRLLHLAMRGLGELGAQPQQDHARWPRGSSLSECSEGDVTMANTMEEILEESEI
Method in brief: as §1

T1 sequence (P43220 24-463): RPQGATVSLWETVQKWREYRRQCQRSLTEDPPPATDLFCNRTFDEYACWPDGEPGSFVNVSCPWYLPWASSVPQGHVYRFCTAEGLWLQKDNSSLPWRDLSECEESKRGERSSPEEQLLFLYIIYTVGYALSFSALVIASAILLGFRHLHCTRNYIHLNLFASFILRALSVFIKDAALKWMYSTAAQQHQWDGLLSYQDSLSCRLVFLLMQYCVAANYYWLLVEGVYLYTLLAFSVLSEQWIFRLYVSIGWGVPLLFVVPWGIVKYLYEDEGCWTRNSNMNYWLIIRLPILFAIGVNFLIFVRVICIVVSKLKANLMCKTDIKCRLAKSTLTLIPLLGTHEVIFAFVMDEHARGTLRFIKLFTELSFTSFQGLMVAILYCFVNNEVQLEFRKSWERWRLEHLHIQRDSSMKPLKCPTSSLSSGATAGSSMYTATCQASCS

Compound	Emax (human GLP1 receptor)	EC50 (human GLP1 receptor)	Emax (human GLP2 receptor)	EC50 (human GLP2 receptor)
CCCC[C@H](NC(=O)[C@H](CCC(=O)O)NC(=O)[C@H](CC(=O)O)NC(=O)[C@H](CO)NC(=O)[C@H](Cc1ccccc1)NC(=O)[C@H](CO)NC(=O)CNC(=O)[C@H](Cc1nn[nH]n1)NC(=O)C(C)(C)C(=O)NCCc1c[nH]cn1)C(=O)N[C@H](Cc1ccccc1)C(=O)N[C@H](C(=O)N[C@H](C(=O)N[C@@H](CC(C)C)C(=O)N[C@@H](CC(=O)O)C(=O)N[C@@H](CC(C)C)C(=O)N[C@@H](CCCCN)C(=O)N[C@@H](C)C(=O)N[C@@H](C)C(=O)N[C@@H](CCCCN)C(=O)N[C@@H](CC(=O)O)C(=O)N[C@@H](Cc1ccccc1)C(=O)N[C@H](C(=O)N[C@@H](CC(N)=O)C(=O)N[C@@H](Cc1c[nH]c2ccccc12)C(=O)N[C@@H](CC(C)C)C(=O)N[C@H](C(=O)N[C@@H](CCC(N)=O)C(=O)N[C@H](C(=O)N[C@H]1CCC(=O)NCCCC[C@@H](C(N)=O)NC(=O)[C@H]([C@@H](C)O)NC(=O)[C@H]([C@@H](C)CC)NC1=O)[C@@H](C)O)[C@@H](C)CC)[C@@H](C)CC)[C@@H](C)CC)[C@@H](C)O [Example 83] ({Malonyl(2,2-Me2,histaminyl)}-[Ala(1H-tetrazol-5-yl)]GSFSDE[Nle][dF]TILDLKAAKDFINWLIQTEITK-NH2; lactam 28-31 (inferred); C-terminus assumed)	98.1%	0.631 nM	103%	0.251 nM
CCCC[C@H](NC(=O)[C@H](CCC(=O)O)NC(=O)[C@@H]1CC(=O)NCCCC[C@H](NC(=O)[C@H](CC(=O)O)NC(=O)C(C)(C)NC(=O)[C@@H](N)Cc2c[nH]cn2)C(=O)N[C@@H](CO)C(=O)N[C@@H](Cc2ccccc2)C(=O)N[C@@H](CO)C(=O)N1)C(=O)N[C@H](Cc1ccccc1)C(=O)N[C@H](C(=O)N[C@H](C(=O)N[C@@H](CC(C)C)C(=O)N[C@@H](CC(=O)O)C(=O)N[C@@H](CC(C)C)C(=O)N[C@@H](CCCCN)C(=O)N[C@@H](C)C(=O)N[C@@H](C)C(=O)N[C@@H](CCCCN)C(=O)N[C@@H](CC(=O)O)C(=O)N[C@@H](Cc1ccccc1)C(=O)N[C@H](C(=O)N[C@@H](CC(N)=O)C(=O)N[C@@H](Cc1c[nH]c2ccccc12)C(=O)N[C@@H](CC(C)C)C(=O)N[C@H](C(=O)N[C@@H](CCC(N)=O)C(=O)N[C@H](C(=O)N[C@@H](CCCCN)C(=O)N[C@H](C(=O)N[C@H](C(=O)N[C@@H](CC(=O)O)C(N)=O)[C@@H](C)O)[C@@H](C)CC)[C@@H](C)O)[C@@H](C)CC)[C@@H](C)CC)[C@@H](C)CC)[C@@H](C)O [Example 84] (H-H[Aib]DKSFSDE[Nle][dF]TILDLKAAKDFINWLIQTKITD-NH2; lactam 4-8; C-terminus assumed)	87.3%	10 nM	103%	0.0501 nM
CCCC[C@@H]1NC(=O)[C@H](CCC(=O)O)NC(=O)[C@@H](NC(=O)[C@H](CO)NC(=O)[C@H](Cc2ccccc2)NC(=O)[C@H](CO)NC(=O)CNC(=O)[C@H](CC(=O)O)NC(=O)C(C)(C)NC(=O)[C@@H](N)Cc2c[nH]cn2)CCCCNC(=O)C[C@@H](C(=O)N[C@H](C(=O)N[C@@H](CC(C)C)C(=O)N[C@@H](CC(=O)O)C(=O)N[C@@H](CC(C)C)C(=O)N[C@@H](CCCCN)C(=O)N[C@@H](C)C(=O)N[C@@H](C)C(=O)N[C@@H](CCCCN)C(=O)N[C@@H](CC(=O)O)C(=O)N[C@@H](Cc2ccccc2)C(=O)N[C@H](C(=O)N[C@@H](CC(N)=O)C(=O)N[C@@H](Cc2c[nH]c3ccccc23)C(=O)N[C@@H](CC(C)C)C(=O)N[C@H](C(=O)N[C@@H](CCC(N)=O)C(=O)N[C@H](C(=O)N[C@@H](CCCCN)C(=O)N[C@H](C(=O)N[C@H](C(=O)N[C@@H](CC(=O)O)C(N)=O)[C@@H](C)O)[C@@H](C)CC)[C@@H](C)O)[C@@H](C)CC)[C@@H](C)CC)[C@@H](C)CC)NC(=O)[C@@H](Cc2ccccc2)NC1=O [Example 85] (H-H[Aib]DGSFSKE[Nle][dF]DILDLKAAKDFINWLIQTKITD-NH2; lactam 8-12; N-terminus and C-terminus assumed)	95.2%	12.6 nM	103%	0.0316 nM
CCCC[C@H](NC(=O)[C@H](CCC(=O)O)NC(=O)[C@H](CC(=O)O)NC(=O)[C@H](CO)NC(=O)[C@H](Cc1ccccc1)NC(=O)[C@H](CO)NC(=O)CNC(=O)[C@H](CC(=O)O)NC(=O)C(C)(C)NC(=O)[C@@H](N)Cc1c[nH]cn1)C(=O)N[C@H](Cc1ccccc1)C(=O)N[C@H]1CC(=O)NCCCC[C@@H](C(=O)N[C@@H](CCCCN)C(=O)N[C@@H](C)C(=O)N[C@@H](C)C(=O)N[C@@H](CCCCN)C(=O)N[C@@H](CC(=O)O)C(=O)N[C@@H](Cc2ccccc2)C(=O)N[C@H](C(=O)N[C@@H](CC(N)=O)C(=O)N[C@@H](Cc2c[nH]c3ccccc23)C(=O)N[C@@H](CC(C)C)C(=O)N[C@H](C(=O)N[C@@H](CCC(N)=O)C(=O)N[C@H](C(=O)N[C@@H](CCCCN)C(=O)N[C@H](C(=O)N[C@H](C(=O)N[C@@H](CC(=O)O)C(N)=O)[C@@H](C)O)[C@@H](C)CC)[C@@H](C)O)[C@@H](C)CC)[C@@H](C)CC)NC(=O)[C@H](CC(=O)O)NC(=O)[C@H](CC(C)C)NC(=O)[C@H]([C@@H](C)CC)NC1=O [Example 97] (H-H[Aib]DGSFSDE[Nle][dF]DILDKKAAKDFINWLIQTKITD-NH2; lactam 12-16; N-terminus and C-terminus assumed)	96.6%	0.316 nM	101%	0.00316 nM

The next lines start with the values.

Emax (human GLP1 receptor)	EC50 (human GLP1 receptor)	Emax (human GLP2 receptor)	EC50 (human GLP2 receptor)	Compound
96%	20 nM	101%	0.00631 nM	CCCC[C@H](NC(=O)[C@H](CCC(=O)O)NC(=O)[C@H](CC(=O)O)NC(=O)[C@H](CO)NC(=O)[C@H](Cc1ccccc1)NC(=O)[C@H](CO)NC(=O)CNC(=O)[C@H](CC(=O)O)NC(=O)C(C)(C)NC(=O)[C@@H](N)Cc1c[nH]cn1)C(=O)N[C@H](Cc1ccccc1)C(=O)N[C@H](C(=O)N[C@H](C(=O)N[C@@H](CC(C)C)C(=O)N[C@@H](CC(=O)O)C(=O)N[C@@H](CC(C)C)C(=O)N[C@H]1CCC(=O)NCCCC[C@@H](C(=O)N[C@@H](CC(=O)O)C(=O)N[C@@H](Cc2ccccc2)C(=O)N[C@H](C(=O)N[C@@H](CC(N)=O)C(=O)N[C@@H](Cc2c[nH]c3ccccc23)C(=O)N[C@@H](CC(C)C)C(=O)N[C@H](C(=O)N[C@@H](CCC(N)=O)C(=O)N[C@H](C(=O)N[C@@H](CCCCN)C(=O)N[C@H](C(=O)N[C@H](C(=O)N[C@@H](CC(=O)O)C(N)=O)[C@@H](C)O)[C@@H](C)CC)[C@@H](C)O)[C@@H](C)CC)[C@@H](C)CC)NC(=O)[C@H](C)NC(=O)[C@H](C)NC1=O)[C@@H](C)CC)[C@@H](C)O [Example 98] (H-H[Aib]DGSFSDE[Nle][dF]TILDLEAAKDFINWLIQTKITD-NH2; lactam 17-20; C-terminus assumed)
97.1%	2.51 nM	101%	0.00501 nM	CCCC[C@H](NC(=O)[C@H](CCC(=O)O)NC(=O)[C@H](CC(=O)O)NC(=O)[C@H](CO)NC(=O)[C@H](Cc1ccccc1)NC(=O)[C@H](CO)NC(=O)CNC(=O)[C@H](CC(=O)O)NC(=O)C(C)(C)NC(=O)[C@@H](N)Cc1c[nH]cn1)C(=O)N[C@H](Cc1ccccc1)C(=O)N[C@H](C(=O)N[C@H](C(=O)N[C@@H](CC(C)C)C(=O)N[C@@H](CC(=O)O)C(=O)N[C@@H](CC(C)C)C(=O)N[C@@H](CCCCN)C(=O)N[C@@H](C)C(=O)N[C@@H](C)C(=O)N[C@@H](CCCCN)C(=O)N[C@@H](CC(=O)O)C(=O)N[C@@H](Cc1ccccc1)C(=O)N[C@H](C(=O)N[C@H]1CCC(=O)NCCCC[C@@H](C(=O)N[C@H](C(=O)N[C@@H](CCCCN)C(=O)N[C@H](C(=O)N[C@H](C(=O)N[C@@H](CC(=O)O)C(N)=O)[C@@H](C)O)[C@@H](C)CC)[C@@H](C)O)NC(=O)[C@H]([C@@H](C)CC)NC(=O)[C@H](CC(C)C)NC(=O)[C@H](Cc2c[nH]c3ccccc23)NC1=O)[C@@H](C)CC)[C@@H](C)CC)[C@@H](C)O [Example 99] (H-H[Aib]DGSFSDE[Nle][dF]TILDLKAAKDFIEWLIKTKITD-NH2; lactam 24-28 (inferred); C-terminus assumed)

Source: patent US20240270809A1, “ORAL GLP RECEPTOR AGONISTS” (priority 2020, published 2024)
